Reference: publication PMC8661510, “Computational study, synthesis and evaluation of active peptides derived from Parasporin-2 and spike protein from Alphacoronavirus against colorectal cancer cells” (Bioscience Reports, 2021)
Like-named read-outs stand apart in the source and are kept apart here. No end group written: not given here.

How the values were obtained:
[1] = test system: SW480 cells; test: Annexin V-Cy3/6-CFDA staining, SW480; format: cell-based, Human; conditions: EC50 concentration, 24 and 48 h
Description: (§1) The presence of phosphatidylserine at the cell surface was detected by phosphatidylserine binding protein annexin V conjugated with Cy3 using the commercially available Annexin V-Cy3 apoptosis detection kit (APOAC, Apoptosis Detection Kit, Sigma). […] The PBS and binding buffer were used to wash the adherent cells and the washed cell adherents were suspended in 50 µl of Ann-Cy3 and 6-CFDA. Then, the plates were incubated for 10 min in the dark. Afterwards, the excess label was removed by washing the cells with binding buffer. EVOS M7000 digital inverted fluorescence microscope (ThermoFisher Scientific; Waltham, MA, U.S.A.) was used to observe Ann-Cy3 and 6-CFDA-labeled cells. This assay allowed one to differentiate live cells (green), necrotic cells (red), and apoptotic cells (red nuclei and green cytoplasm). The percentage of cells reflecting apoptotic and necrotic cells was manually calculated. Data were collected for three replicates and used to calculate the respective means and standard deviations.

[2] = test system: SW620 cells; test: cells; conditions: Homo sapiens, SW-620, 48 h
[3] = test system: SW620 cells; test: Annexin V-Cy3/6-CFDA staining, SW620; format: cell-based, Human; conditions: EC50 concentration, 24 and 48 h
Description: as §1

[4] = test system: SW480 cells; test: cells; conditions: Homo sapiens, SW480, 48 h
[5] = test system: SW620 cells; conditions: for EC50: 48 h; for percentage of cell viability SW620 cells: human, 150 µM
[6] = test system: SW480 cells; conditions: for EC50: 48 h; for percentage of viability SW480 cells: human, 150 µM
[7] = Hemolytic activity assay; format: cell-based; conditions: human, erythrocytes; 150 μM peptide; relative to 0.1% Triton X-100; read-out: %HC50 at 150 μM (percentage of hemolysis)

Molecule	Annexin V-Cy3/6-CFDA staining result [1]	EC50 ([2]; read-out: EC50 SW620) [µM]	viability at 150 µM ([2]; read-out: percentage of cell viability SW620 cells) [%]	Annexin V-Cy3/6-CFDA staining result [3]	EC50 ([4]; read-out: EC50 SW480) [µM]	viability at 150 µM ([4]; read-out: percentage of viability SW480 cells) [%]	EC50 [5] [µM]	percentage of cell viability SW620 cells [5] [%]	EC50 [6] [µM]	percentage of viability SW480 cells [6] [%]	hemolysis at 150 μM [7] [%]
O=c1[nH]cc(F)c(=O)[nH]1 [5-FU, 5-Fluorouracil]	Same results	11.9 ± 1.2	2.8	Same results	24.4 ± 0.82	18.9	–	–	–	–	–
FKPQSGGGKCF-NH2 [Loop1-HCoV-229E, FKPQSGGGKCF-NH2]	–	–	–	–	–	–	> 150	55.2	125 ± 1.32	56.2	9.2
H-FLGWLFKVASK-NH2 [A4W-GGN5, FLGWLFKVASK-NH2, reference compound]	–	–	–	–	–	–	22.1 ± 1.63	32.2	98.6 ± 1.17	41.8	23
NNETYFNAVKP-NH2 [Loop1-PS2Aa, NNETYFNAVKP-NH2]	–	–	–	–	–	–	106 ± 1.67	46.8	23.8 ± 1.25	16	18.1
PARDVLNTTSG-NH2 [P264-G274, PARDVLNTTSG-NH2]	–	–	–	–	–	–	11.3 ± 0.52	16.5	90.98 ± 0.75	41.6	12.2
TYFNAVKPPITA-NH2 [Loop2-PS2Aa, TYFNAVKPPITA-NH2]	–	–	–	–	–	–	16 ± 0.69	24.1	93 ± 0.98	39.5	9.4
